From patent US20090170880A1, “Methods and Means for the Treatment of Cancer” (priority 2007, published 2009)
Entries after “also recorded” stand apart in the source; their conditions may differ.

Assays:
human BCRP = biological target: T1, human BCRP (Homo sapiens, UniProt Q9UNQ0); experiment: Transwell transport of temozolomide, MDCK-BCRP cells; format: in vitro ADME; settings: 40 μg/ml, MDCK-BCRP versus MDCK parent, zosuquidar 5 μM
T1 construct: expressed in transfected cells; host or cells: MDCK (canine kidney) cells transduced with human BCRP
T1 sequence (Q9UNQ0 1-655): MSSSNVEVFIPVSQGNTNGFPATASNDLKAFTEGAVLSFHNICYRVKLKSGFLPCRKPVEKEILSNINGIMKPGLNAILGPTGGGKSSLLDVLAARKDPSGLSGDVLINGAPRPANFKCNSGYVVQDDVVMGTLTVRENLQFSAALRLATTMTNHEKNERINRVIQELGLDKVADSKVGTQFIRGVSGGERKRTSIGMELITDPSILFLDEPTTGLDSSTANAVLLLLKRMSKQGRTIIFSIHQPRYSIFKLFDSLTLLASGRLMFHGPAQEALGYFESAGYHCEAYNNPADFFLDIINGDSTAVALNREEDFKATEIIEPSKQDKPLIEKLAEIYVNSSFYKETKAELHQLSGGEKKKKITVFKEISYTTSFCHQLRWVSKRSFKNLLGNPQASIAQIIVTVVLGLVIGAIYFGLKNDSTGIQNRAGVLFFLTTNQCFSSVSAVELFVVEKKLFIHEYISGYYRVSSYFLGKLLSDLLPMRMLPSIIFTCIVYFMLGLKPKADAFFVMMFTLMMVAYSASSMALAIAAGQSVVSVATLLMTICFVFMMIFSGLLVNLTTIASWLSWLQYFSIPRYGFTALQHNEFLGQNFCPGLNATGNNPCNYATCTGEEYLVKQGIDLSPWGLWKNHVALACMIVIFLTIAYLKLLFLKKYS
Procedure: The parental LLC pig-kidney (PK1) cell line and sublines transduced with murine Mdr1a or human MDR1 (12) and the parental Madine Darby Canine Kidney (MDCK) and murine Bcrp1 or human BCRP transduced sublines (13) were seeded on Transwell microporous polycarbonate membrane filters (3.0 μm pore size, 24 mm diameter; Costar Corning, N.Y., USA) at a density of 1×10^6 cells per well in 2 ml of MEM medium (Invitrogen Corporation, Carlsbad, Calif.) containing 10% v/v fetal calf serum. Cells were incubated at 37° C. in 5% CO2 for three days with one medium replacement after the first day. Two hours before the start of the experiment the medium in both compartments was replaced with 2 ml of OptiMEM medium (InVitrogen Corp.). At the start of the experiment the medium in the apical or basolateral compartment was replaced with 2 ml of freshly prepared OptiMEM medium containing 40 μg/ml of temozolomide. […] Zosuquidar (LY335979, 5 μM) was always added to the medium when doing experiments with MDCK cell lines to inhibit endogenous canine P-gp. Samples of 50 μl were collected every 30 min, for up to 2 h after start of the experiment. Because temozolomide is instable in medium at 37° C., we replaced one ml of the donor compartment by a freshly prepared aliquot every 30 min. […]

[1] = tested on: intracranial Mel57-luc tumor xenografts; experiment: Efficacy against intracranial Mel57-luc tumor xenografts; format: in vivo, nude mice
Procedure: Intracranial Mel57-luc (luciferase transfected subline) tumor xenografts in wild-type nude mice (WT) and mdr1ab knockout nude mice (MDR) were established according to the protocol below (see Kemper et al, Eur J Cancer 42:3294-3303, 2006).
The Mel57 cell line (University Medical Centre, Nijmegen, The Netherlands) is a human melanoma cell line and was cultured in MEM (Life Technologies Inc., Breda, The Netherlands) supplemented with 10% foetal calf serum, non-essential amino acids, streptomycin, penicillin and sodium pyruvate (all Life Technologies), and incubated at 37° C. and 5% CO2 in humidified air. The cell line was further transfected by standard protocols with lipofectamine using a pBS vector containing a β-actin driven luciferase gene coupled via an internal ribosome […] to GFP. After expansion, GFP bright cells were sorted to single cells by FACS, expanded and sublines tested for luciferase expression by an in vitro bioluminescence assay (Promega, Benelux BV, Leiden, The Netherlands). Three to five sublines showing the highest luminescence activity were tested in vivo for tumour take and intracranial growth behaviour. To retrieve tumour cells for injection, the cell culture was trypsinised (trypsin 0.05%; EDTA 0.02%, Life Technologies), washed two times with Hanks Balanced Saline Solution (HBSS, Life Technologies Inc.), counted and resuspended in an appropriate volume of HBSS. The single cell suspension was kept on ice until injection. […]
Mel57-luc cells (100,000 cells/2 μl) were injected stereotactically in the brain as described in detail in Kemper et al^14. […] The amount of bioluminescence in each animal was calculated relative to the first measurement when therapy was initiated (arbitrarily set at 100%) and was log converted prior to data analysis. Tumor volume was measured by bioluminescence activity (see Kemper et al, Eur J Cancer 42:3294-3303, 2006).

transport of temozolomide by human BCRP (human BCRP): more moderate transport | transport of temozolomide by human BCRP (human BCRP; listed as Temozolomide): less
Compound: Cn1nnc2c(C(N)=O)ncn2c1=O [temozolomide, 8-carbamoyl-3-methyl-[3H]-imidazo[5,1-d]-1,2,3,5-tetrazin-4-one]
response to temozolomide, P-gp (Mdr1ab) knockout versus wild-type nude mice ([1]; oral 100 mg/kg for 5 consecutive days, bioluminescence, 100 mg/kg): greater reduction in tumor volume; also recorded: respond better | difference in efficacy, Bcrp1/Mdr1ab knockout versus wild-type nude mice ([1]; oral 100 mg/kg/day×5 from day 7, bioluminescence): more pronounced
